# Results reported in patent publication US12062422B2, “System, method and computer-accessible medium for use of heavy water as a probe for imaging metabolic activities” (The Trustees of Columbia University in the City of New York, priority 2018, dated 2024).
# Assays:
# C. elegans = experiment: Toxicity of D2O on C. elegans (lethality, sterility, brood size, gonad development); format: in vivo
# Protocol: C. elegans wild type (e.g., N2) and mutant strains were maintained at 20° C. using nematode growth media (“NGM”) and E. coli strain OP50 as a food source. (See. e.g., Reference 61). Different concentrations of D2O were added to replace H2O in NGM. E. coli OP50 were seeded on D2O-containing NGM plates and grown for 24 hours; worms were then placed at different ages onto those plates for various amount of time. To determine the toxicity of D2O, eggs were prepared using hypochlorite, which made the eggshell porous and permeable to D2O, placed them onto plates containing different concentration of D2O, and counted the number of eggs that could not hatch into normal moving larva. Fourth stage larva were placed onto those plates and counted how many animals became sterile and determined the brood size by counting the total number of hatch larvae from the all the eggs laid by one animal. Three replicates were performed.
# (§1) FIGS. 10A-10E show exemplary graphs and images that illustrate toxicity of D2O on cells and C. elegans. […] Three replicates were performed. Mean and s.d. were shown. […] D-labeled OP50 refers to overnight grown culture of E. coli OP50 that were seeded onto the D2O-containing NGM plates 24 hours before the experiment; non-labeled OP50 refers to the experimental setup, in which bacteria were killed by UV after being placed onto the D2O plates and thus was not labeled by deuterium. Each group has 50 worms, and three replicates were made. Mean and s.d. were shown.
# 50 worms were used for each treatment, and […] replicates were made. Mean and s.d. were shown. […] Scale bar=20 μm.
# [1] = mouse, in vivo; cited from earlier work
# HeLa cells [2] = experiment: CellTiter-Glo Luminescent Cell Viability Assay, cellular toxicity of D2O; format: cell-based; settings: medium containing D2O
# Protocol: To determine cellular toxicity, HeLa cells and COS-7 cells were first seeded in […] plates at about 500 per cm^2 and grown overnight; the culture was then changed to DMEM containing different concentration (e.g., 0% to 100%) of D2O for about 48 hours. The viability of cell was accessed using the CellTiter-Glo® Luminescent Cell Viability Assay (e.g., Promega) according to the manufacturer's protocol. Cells cultured in pure DMEM medium were used as control and wells containing only medium without cells for background luminescence. Viability was calculated using the background-corrected […] as follows: Viability (%)=Absorbance of experiment well/Absorbance of control well×100%. Three replicates were performed.
# as §1
# HeLa cells [3] = experiment: SRS imaging of lipid droplets in HeLa cells, D-labeled fatty acids versus D2O; format: cell-based; settings: for CDL signal distribution, lipid droplets: 10 μM D-labeled fatty acid, 6 hours
# Protocol: For live-cell imaging, HeLa and COS-7 cells were seeded onto a glass-bottom dish (e.g., MatTek) and grown for 6 to 8 hours in regular DMEM before the medium was changed to DMEM containing 70% D2O. Cells were then grown for different periods of time before being placed onto the stage for SRS imaging. When treating cells with D-labeled fatty acids, they were first reacted with sodium hydroxide and then coupled to bovine serum albumin (“BSA”) in about 2:1 molar ratio to make 2 mM stock solution. Those stock solutions were then added to the medium to reach the final working concentration (e.g., 10 μM).
# FIGS. 4A-4E illustrate the exemplary DO-SRS visualizes de novo lipogenesis in cultured cells and in C. elegans. […] The number of lipid droplets formed in the three conditions were quantified (mean±s.d.; N=5 for D-OA, 15 for D-PA, and 8 for D2O; double asterisks indicate p<0.01 in an unpaired t-test). CHL signal for D2O treatment confirmed the presence of few lipid droplets. […] Live bacteria were labeled by deuterium (element 405), and killed bacteria were not labeled (element 410). […] E. coli OP50 were seeded onto the D2O plates 24 hours before the experiments. Scale bar=20 μm. […] CDL mean intensity was plotted. For all C. elegans experiments, at least 8 animals were imaged for each condition to calculate mean intensity; mean±s.d. of the mean intensity was shown.
# [4] = in vivo; cited from earlier work
# mice = experiment: Injection of D-PA into mice, SRS imaging of CDL signal; format: in vivo; settings: intraperitoneal bolus injection of 96 μmol
# Protocol: To inject D-labeled palmitic acids (“D-Pas”) intravenously, mice were anesthetized by isoflurane, and one of the carotid arteries was cannulated for the implantation of a catheter. A syringe filled with 4 mM D-PA dissolved in mammalian Ringer's solution was then connected with the implanted catheter, and D-PA solution was perfused at 0.001 ml/min using a syringe pump (e.g., AL-1000, WPI). The administration lasted for 8 hours every day for three consecutive days before the mice were sacrificed and their organs were harvested, fixed, sectioned, and imaged by SRS. To inject D-PA intraperitoneally, 0.16 ml of 600 mM D-PA emulsion was injected into the lower right side of abdomen according to a previous method. (See, e.g., Reference 64). 17 hours later, the mice were sacrificed and their tissues were collected and imaged.
# FIGS. 13A-13C show exemplary images that illustrate imaging de novo biosynthesis in various mouse organs. […] Lipid-rich sebaceous glands and adipose tissues were harvested from adult mice that drank 25% D2O for 8 and 15 days, respectively. Myelinated axon fibers of internal capsule were harvested from P11 mouse pups that were fed on milk produced by mother mice drinking 25% D2O for 6 days before imaging. […] Tissues were harvested, fixed, and imaged 17 hours after the injection. […] Scale bar=[…].
# endoplasmic reticulum = settings: approximately 200 μM; cited from earlier work
# HeLa cells [5] = experiment: Raman spectra of D2O-treated HeLa cells with protein or lipid synthesis inhibitors; format: cell-based; settings: 24 hours
# Protocol: For inhibitor treatments, cells were first grown in glass bottom dishes with DMEM made of H2O overnight, and then the medium was changed to 70% D2O DMEM containing either 10 nM fatty acid synthase inhibitor TVB-3166 (e.g., Sigma CAS 1533438-83-3) or 1 μM protein synthesis inhibitor anisomycin (e.g., Sigma CAS 22862-76-6). Cells were then cultured for 24 hours, imaged by SRS microscopy, and fixed by 4% paraformaldehyde for spontaneous Raman spectroscopy.
# Cells grown in DMEM made of 100% H2O were used as control.
molecule,measurement,setting,value
"[2H]O[2H] [D2O, deuterium oxide]",gonad development,"C. elegans; 60% D2O, animals developed from L4 to adults on D2O plates",gonad developed normally
same,gonad development,C. elegans; 80% D2O,gonad development was disrupted
same,proliferation of the germ cells,C. elegans; 80% D2O,appeared to be affected
same,D2O concentration with no observable toxicity and no effect on cell division,C. elegans; C. elegans,< 60%
same,embryo formation,C. elegans; in vivo,normal embryos were formed
same,embryo formation in the uterus,C. elegans; in vivo,no embryos were formed
same,D2O enrichment that did not cause any effect on physiological processes,[1],below 20%
same,D2O concentration above which toxicity arises,HeLa cells [2],exceeded 80%
same,lipid droplets in CDL and CHL channels,"HeLa cells [3]; 70% D2O, 24 hours",very few lipid droplets
same,adverse symptoms,[4],does not cause any adverse symptoms
same,body water enrichment,[4],approximately 2%
"[2H]OC(=O)C([2H])([2H])C([2H])([2H])C([2H])([2H])C([2H])([2H])C([2H])([2H])C([2H])([2H])C([2H])([2H])/C([2H])=C(/[2H])C([2H])([2H])C([2H])([2H])C([2H])([2H])C([2H])([2H])C([2H])([2H])C([2H])([2H])C([2H])([2H])C([2H])([2H])[2H] [D-OA, D34-oleic acids]","number of lipid droplets, comparison",HeLa cells [3]; 10 μM,remarkably more lipid droplets than D-PA
same,"CDL signal distribution, lipid droplets",HeLa cells [3],accumulation of CDL signal in lipid droplets
"[2H]C([2H])([2H])C([2H])([2H])C([2H])([2H])C([2H])([2H])C([2H])([2H])C([2H])([2H])C([2H])([2H])C([2H])([2H])C([2H])([2H])C([2H])([2H])C([2H])([2H])C([2H])([2H])C([2H])([2H])C([2H])([2H])C([2H])([2H])C(=O)O [D-PA, D31-palmitic acids]","CDL signal distribution, lipid droplets",HeLa cells [3],accumulation of CDL signal in lipid droplets
same,CDL signal in pancreas,mice,accumulation of CDL signal in the ER membrane of pancreatic cells
"CCCCCCCC/C=C\CCCCCCCC(=O)O [OA, oleic acid]",effect on endoplasmic reticulum membrane,endoplasmic reticulum,not
"CCCCCCCCCCCCCCCC(=O)O [PA, palmitic acid]",effect on endoplasmic reticulum membrane,endoplasmic reticulum,drove the formation of solid-like microdomain and membrane phase separation in endoplasmic reticulum
COc1ccc(C[C@H]2NC[C@H](O)[C@H]2OC(C)=O)cc1 [anisomycin],peak of remaining C-D Raman signal,"HeLa cells [5]; 1 μM anisomycin, 70% D2O DMEM, remaining D-labeled lipid signal",2135 cm⁻¹
TVB-3166,peak of remaining C-D Raman signal,"HeLa cells [5]; 10 nM TVB-3166, 70% D2O DMEM, remaining D-labeled protein signal",2185 cm⁻¹
